From ChEMBL document CHEMBL1201862, “PubChem BioAssay data set” (2004)
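Method: 48-hour compound exposure of cells in 96-well plates, five concentrations, linear interpolation of endpoints. Abbreviation: GI50, concentration required for 50% inhibition of growth.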 Active and inactive are the calls of the source. Cut-off read from the data, not from the text of the source: active = GI50 up to about 1.1 µM and inactive = higher.

Tests used:
Experiment in all cases: NCI anticancer screen, dose series, 48 h
SK-MEL-5 = test system: SK-MEL-5
MDA-N = test system: MDA-N
HL-60 = test system: HL-60
T47D = test system: T47D
HCT-15 = test system: HCT-15
HT-29 = test system: HT-29
OVCAR-4 = test system: OVCAR-4
A549 = test system: A549
TK-10 = test system: TK-10
MCF7 = test system: MCF7
UO-31 = test system: UO-31
RPMI-8226 = test system: RPMI-8226
SNB-75 = test system: SNB-75
SK-MEL-2 = test system: SK-MEL-2
MDA-MB-435 = test system: MDA-MB-435
SR = test system: SR
MOLT-4 = test system: MOLT-4
LOX IMVI = test system: LOX IMVI
SF-295 = test system: SF-295
OVCAR-8 = test system: OVCAR-8

Row | SMILES | GI50 (SK-MEL-5) | GI50 (MDA-N) | GI50 (HL-60) | GI50 (T47D) | GI50 (HCT-15) [µM] | GI50 (HT-29) | GI50 (OVCAR-4) | GI50 (A549) | GI50 (TK-10) | GI50 (MCF7) | GI50 (UO-31) | GI50 (RPMI-8226) | GI50 (SNB-75) | GI50 (SK-MEL-2) | GI50 (MDA-MB-435) | GI50 (SR) | GI50 (MOLT-4) | GI50 (LOX IMVI) | GI50 (SF-295) | GI50 (OVCAR-8)
1 | C=C1C(=O)OC2/C=C(\C)C3OC3/C=C(/C(=O)OC)C(OC(C)=O)C(OC(=O)C(C)(O)C(C)OC(C)=O)C12 (stereo not given) | 2.5 µM (inactive) | 2.69 µM (inactive) | 0.308 µM (active) | 6.3 µM (inactive) | 6.24 | 1.29 µM (inactive) | 3.5 µM (inactive) | 14.6 µM (inactive) | 1.83 µM (inactive) | 0.736 µM (active) | 6.52 µM (inactive) | 0.92 µM (active) | 2.81 µM (inactive) | 4.59 µM (inactive) | 2.03 µM (inactive) | 0.652 µM (active) | 0.647 µM (active) | 1.53 µM (inactive) | 9.2 µM (inactive) | 1.4 µM (inactive)
2 | O=[N+]([O-])O [NITRIC ACID] | > 100 µM (inactive) | > 100 µM (inactive) | > 100 µM (inactive) | > 100 µM (inactive) | > 100 | > 100 µM (inactive) | > 100 µM (inactive) | > 100 µM (inactive) | > 100 µM (inactive) | > 100 µM (inactive) | > 100 µM (inactive) | > 100 µM (inactive) | > 100 µM (inactive) | > 100 µM (inactive) | > 100 µM (inactive) | 77.1 µM (inactive) | > 100 µM (inactive) | > 100 µM (inactive) | > 100 µM (inactive) | > 100 µM (inactive)
3 | CC(C)(C)c1cc(C(C)(C)C)c2sc(=S)oc2c1O | 8.17 µM (inactive) | 6.01 µM (inactive) | 7.45 µM (inactive) | 5.19 µM (inactive) | 4.98 | 14.9 µM (inactive) | 11.7 µM (inactive) | 6.55 µM (inactive) | 1.18 µM (inactive) | 6.79 µM (inactive) | 4.12 µM (inactive) | 7.33 µM (inactive) | 6.49 µM (inactive) | 8.79 µM (inactive) | 8.17 µM (inactive) | 3.18 µM (inactive) | 5.2 µM (inactive) | 5.05 µM (inactive) | 10.5 µM (inactive) | 6.34 µM (inactive)
4 | O=C(/C=C/c1ccc(O)cc1)c1ccc(O)cc1 [4,4'-DIHYDROXYCHALCONE] | 21.5 µM (inactive) | 27.4 µM (inactive) | 17 µM (inactive) | 44.1 µM (inactive) | 20.3 | 19.9 µM (inactive) | > 69.8 µM (inactive) | 30.5 µM (inactive) | 46.9 µM (inactive) | 32.9 µM (inactive) | 22 µM (inactive) | 11.2 µM (inactive) | 20.9 µM (inactive) | 19.6 µM (inactive) | 40.2 µM (inactive) | 9.71 µM (inactive) | 19.3 µM (inactive) | 11.4 µM (inactive) | 31.8 µM (inactive) | 16.7 µM (inactive)
5 | Nc1nc(Cl)cc(NCC2CC(O)(CO)C2)n1 (stereo not given) | > 100 µM (inactive) | > 100 µM (inactive) | > 100 µM (inactive) | > 100 µM (inactive) | > 100 | > 100 µM (inactive) | > 100 µM (inactive) | > 100 µM (inactive) | > 100 µM (inactive) | > 100 µM (inactive) | > 100 µM (inactive) | > 100 µM (inactive) | > 100 µM (inactive) | > 100 µM (inactive) | > 100 µM (inactive) | > 10 µM (inactive) | > 100 µM (inactive) | > 100 µM (inactive) | > 100 µM (inactive) | > 100 µM (inactive)
6 | CCCCCC(O)(CCCCC)CCCCCCCCC1=C(O)C(=O)c2ccccc2C1=O | 3.62 µM (inactive) | 10.5 µM (inactive) | 3.51 µM (inactive) | 26.4 µM (inactive) | 4.18 | 14.1 µM (inactive) | 9.79 µM (inactive) | 9.64 µM (inactive) | 15 µM (inactive) | 9.62 µM (inactive) | 10.3 µM (inactive) | 3.38 µM (inactive) | 28.1 µM (inactive) | 12.1 µM (inactive) | 8.53 µM (inactive) | 3.44 µM (inactive) | 3.33 µM (inactive) | 4.97 µM (inactive) | 7.91 µM (inactive) | 7.19 µM (inactive)
7 | COc1ccc(CNC2=Nc3ccncc3S(=O)(=O)N2c2ccccc2)cc1 | 19 µM (inactive) | 29.9 µM (inactive) | 12.8 µM (inactive) | 29.3 µM (inactive) | 34.3 | 48.3 µM (inactive) | 37.4 µM (inactive) | 40.6 µM (inactive) | 20.3 µM (inactive) | 38.5 µM (inactive) | 45.7 µM (inactive) | 16.4 µM (inactive) | 39.1 µM (inactive) | 41.7 µM (inactive) | 24.9 µM (inactive) | 23.3 µM (inactive) | 19 µM (inactive) | 46.9 µM (inactive) | 65 µM (inactive) | 49.8 µM (inactive)
8 | CCOC(=O)C(=CNc1ccc(NC2=NCC(C)S2)cc1)C(=O)OCC (stereo not given) | 16.5 µM (inactive) | 25.7 µM (inactive) | 2.38 µM (inactive) | 24.8 µM (inactive) | 15.2 | 23.6 µM (inactive) | 9.62 µM (inactive) | 35.6 µM (inactive) | 46.1 µM (inactive) | 30.3 µM (inactive) | 17.8 µM (inactive) | 9.48 µM (inactive) | 22.1 µM (inactive) | 19.7 µM (inactive) | 20.2 µM (inactive) | 22.3 µM (inactive) | 3.15 µM (inactive) | 30.1 µM (inactive) | 29.6 µM (inactive) | 24.5 µM (inactive)
9 | O=C(O)c1c2c(cc3c1CC1(Cc4cc5c(cc4C1=O)CCC5)C3)CCC2 (stereo not given) | > 100 µM (inactive) | > 100 µM (inactive) | 65.2 µM (inactive) | 80 µM (inactive) | 74.1 | > 100 µM (inactive) | 52.2 µM (inactive) | 54.8 µM (inactive) | > 100 µM (inactive) | 42.4 µM (inactive) | > 100 µM (inactive) | > 100 µM (inactive) | > 100 µM (inactive) | > 100 µM (inactive) | > 100 µM (inactive) | 20.7 µM (inactive) | 50.8 µM (inactive) | 57.1 µM (inactive) | > 100 µM (inactive) | > 100 µM (inactive)
10 | COc1cccc(/C=N/n2c(Cc3ccc(Cl)cc3)n[nH]c2=O)c1 | > 100 µM (inactive) | > 100 µM (inactive) | > 100 µM (inactive) | 16.1 µM (inactive) | 99.3 | 12.4 µM (inactive) | > 92.9 µM (inactive) | 58.6 µM (inactive) | 74 µM (inactive) | 29.9 µM (inactive) | > 73.5 µM (inactive) | > 77.6 µM (inactive) | 11.7 µM (inactive) | 32.7 µM (inactive) | > 100 µM (inactive) | > 76.9 µM (inactive) | > 100 µM (inactive) | 25.6 µM (inactive) | 17.1 µM (inactive) | 16.9 µM (inactive)
